Laboratory results reported in PMC7027746 (Clinical Pharmacology in Drug Development, 2019).
Read-outs that look alike come from different tables or passages of the source.

Columns and labels:
[1] = type: in vivo, human; settings: for CL/F, geometric mean (% CV) / CL/F, mean (SD) / AUC / Cmax: healthy subjects
[2] = type: in vivo, human; settings: for CL/F, geometric mean (% CV) / CL/F, mean (SD) / AUC / Cmax: healthy subjects; remark: listed apart in the source
[3] = Rifampin DDI arm: single-dose brigatinib plasma PK with and without rifampin; type: in vivo, human; settings: for half-life / Cmax / AUC: human, plasma
healthy subjects = assay: Safety and tolerability; type: in vivo, human
[4] = system: crizotinib‐naive patients with ALK‐positive NSCLC; settings: cited from earlier work
[5] = cited from earlier work
[6] = healthy volunteers, cited from earlier work
[7] = single 180‐mg oral dose of [14C]‐brigatinib, healthy volunteers; cited from earlier work
CYP1A2 = settings: human liver microsomes, clinically relevant concentrations; ref data on file; cited from earlier work
CYP2B6 = settings: human liver microsomes, clinically relevant concentrations; ref data on file; cited from earlier work
CYP2C8 = settings: human liver microsomes, clinically relevant concentrations; ref data on file; cited from earlier work
CYP2C9 = settings: human liver microsomes, clinically relevant concentrations; ref data on file; cited from earlier work
CYP2C19 = settings: human liver microsomes, clinically relevant concentrations; ref data on file; cited from earlier work
CYP2D6 = settings: human liver microsomes, clinically relevant concentrations; ref data on file; cited from earlier work
CYP3A4/5 = settings: human liver microsomes, clinically relevant concentrations; ref data on file; cited from earlier work
CYP3A expression = settings: human hepatocytes, clinically relevant concentrations, via activation of the pregnane X receptor; cited from earlier work
ALK = settings: in vitro; cited from earlier work
[8] = brigatinib 90 mg + gemfibrozil vs brigatinib alone
[9] = brigatinib + gemfibrozil compared with brigatinib alone
[10] = single 90 mg oral brigatinib + gemfibrozil 600 mg BID (test), n = 19
[11] = single 90 mg oral brigatinib alone (reference), n = 19
[12] = human, plasma, po, 90 mg, AUC0‐120, geometric mean (% CV), single 90 mg oral brigatinib alone (reference), n = 20
[13] = human, plasma, po, 90 mg, AUC0‐120, mean (SD), single 90 mg oral brigatinib alone (reference), n = 20
[14] = human, plasma, po, 90 mg, geometric mean (% CV), single 90 mg oral brigatinib alone (reference), n = 20
[15] = brigatinib 90 mg + itraconazole vs brigatinib alone
[16] = brigatinib + itraconazole compared with brigatinib alone
[17] = single 90 mg oral brigatinib + itraconazole 200 mg BID (test), n = 11
[18] = single 90 mg oral brigatinib alone (reference), n = 20
[19] = brigatinib 180 mg + rifampin vs brigatinib alone
[20] = brigatinib + rifampin compared with brigatinib alone
[21] = healthy subjects, single 180 mg oral brigatinib + rifampin 600 mg QD (test), n = 19
[22] = healthy subjects, single 180 mg oral brigatinib alone (reference), n = 20
[23] = brigatinib coadministered with gemfibrozil

With `COc1cc(N2CCC(N3CCN(C)CC3)CC2)ccc1Nc1ncc(Cl)c(Nc2ccccc2P(C)(C)=O)n1` [brigatinib, Brigatinib] the “AUC0‐120, geometric LS mean ratio (90%CI) (test vs reference)” value [1, 8] was 0.85 (0.80‐0.91), the “CL/F, geometric LS mean ratio (90%CI) (test vs reference)” value (“CL/F, geometric LS mean ratio (90%CI)” for short) [1, 8] was 1.13 (1.06‐1.20) and the “reduction in peak concentrations” value [1, 9] was “approximately 40%”. For the same molecule, the “reduction of geometric mean AUC0‐inf” value [1, 9] was 12%, the “CL/F, geometric mean (% CV)” value [1, 10] was 15.7 (25.7) L/h and the “CL/F, mean (SD)” value [1, 10] was 16.2 (4.3) L/h. The “CL/F, geometric mean (% CV)” value [1, 11] was 13.1 (33.9) L/h, the “CL/F, mean (SD)” value [1, 11] was 13.8 (4.6) L/h and the half-life ([1]; human, plasma, oral, 90 mg) was 26.5 h. For the same molecule, the Tmax ([1]; human, plasma, po, 90 mg) was 2 h, the half-life ([1]; human, plasma, po, 90 mg) was 26.7 h and the AUC [1, 12] was 6490 ng·h/mL. It also gave an AUC [1, 13] of 6840 ng·h/mL, an AUC ([1]; human, plasma, po, 90 mg, AUC0‐inf, geometric mean (% CV), single 90 mg oral brigatinib alone (reference), n = 19) of 6880 ng·h/mL and an AUC ([1]; human, plasma, po, 90 mg, AUC0‐inf, mean (SD), single 90 mg oral brigatinib alone (reference), n = 19) of 7230 ng·h/mL. The Cmax [1, 14] was 348 ng/mL, the AUC ([1]; human, plasma, po, AUC0‐120, geometric mean (% CV), single 90 mg oral brigatinib + gemfibrozil 600 mg BID (test), n = 19) was 5340 ng·h/mL and the AUC ([1]; human, plasma, po, AUC0‐120, mean (SD), single 90 mg oral brigatinib + gemfibrozil 600 mg BID (test), n = 19) was 5520 ng·h/mL. For the same molecule, the AUC ([1]; human, plasma, po, AUC0‐inf, geometric mean (% CV), single 90 mg oral brigatinib + gemfibrozil 600 mg BID (test), n = 19) was 5740 ng·h/mL, the AUC ([1]; human, plasma, po, AUC0‐inf, mean (SD), single 90 mg oral brigatinib + gemfibrozil 600 mg BID (test), n = 19) was 5910 ng·h/mL and the Cmax ([1]; human, plasma, po, geometric mean (% CV), single 90 mg oral brigatinib + gemfibrozil 600 mg BID (test), n = 19) was 199 ng/mL. The Cmax ([1]; human, plasma, po, mean (SD), single 90 mg oral brigatinib + gemfibrozil 600 mg BID (test), n = 19) was 210 ng/mL, the “CL/F, geometric LS mean ratio (90%CI)” value [2, 15] was 0.50 (0.45‐0.54) and the “Cmax, geometric LS mean ratio (90%CI) (test vs reference)” value [2, 15] was 1.21 (1.13‐1.30). The “increase of geometric mean AUC0‐120” value [2, 16] was 82%, the “increase of geometric mean AUC0‐inf” value [2, 16] was 101% and the “increase of geometric mean Cmax” value [2, 16] was 21%. The “prolongation in the geometric mean t½” value [2, 16] was roughly 50%, the “increase of systemic exposure” value ([2]; by itraconazole) was 2 fold and the “CL/F, geometric mean (% CV)” value [2, 17] was 6.67 (35.6) L/h. For the same molecule, the “CL/F, mean (SD)” value [2, 17] was 7.05 (2.54) L/h, the “CL/F, geometric mean (% CV)” value [2, 18] was 14.0 (28.7) L/h and the “CL/F, mean (SD)” value [2, 18] was 14.46 (3.84) L/h. For the same molecule, the Tmax ([2]; human, plasma, po, 90 mg) was 2.8 h, the half-life ([2]; human, plasma, po, 90 mg) was 30.5 h and the AUC [2, 12] was 6140 ng·h/mL. For the same molecule, the AUC [2, 13] was 6380 ng·h/mL, the AUC ([2]; human, plasma, po, 90 mg, AUC0‐inf, geometric mean (% CV), single 90 mg oral brigatinib alone (reference), n = 20) was 6450 ng·h/mL and the AUC ([2]; human, plasma, po, 90 mg, AUC0‐inf, mean (SD), single 90 mg oral brigatinib alone (reference), n = 20) was 6710 ng·h/mL. For the same molecule, the Cmax [2, 14] was 331 ng/mL, the Cmax ([2]; human, plasma, po, geometric mean (% CV), single 90 mg oral brigatinib + itraconazole 200 mg BID (test), n = 20) was 401 ng/mL and the Cmax ([2]; human, plasma, po, mean (SD), single 90 mg oral brigatinib + itraconazole 200 mg BID (test), n = 20) was 429 ng/mL. The “AUC0‐120, geometric LS mean ratio (90%CI) (test vs reference)” value [3, 19] was 0.20 (0.19‐0.22), the “CL/F, geometric LS mean ratio (90%CI)” value [3, 19] was 5.11 (4.73‐5.51) and the “decrease of geometric mean Cmax” value [3, 20] was 60%. For the same molecule, the “reduction of geometric mean AUC0‐inf” value [3, 20] was 80%, the “CL/F, geometric mean (% CV)” value [3, 21] was 59.2 (25.8) L/h and the “CL/F, mean (SD)” value [3, 21] was 61.0 (15.4) L/h. For the same molecule, the “tmax, median (range)” value [3, 21] was 2.0 (1.0‐4.0) h, the “CL/F, geometric mean (% CV)” value [3, 22] was 11.5 (34.4) L/h and the “CL/F, mean (SD)” value [3, 22] was 12.2 (4.3) L/h. For the same molecule, the half-life ([3]; oral, 180 mg, geometric mean t½, brigatinib 180 mg in the presence of rifampin) was 23.4 h, the Cmax ([3]; po, 180 mg, geometric mean (% CV), healthy subjects, single 180 mg oral brigatinib alone (reference), n = 20) was 826 ng/mL and the AUC ([3]; po, AUC0‐120, geometric mean (% CV), healthy subjects, single 180 mg oral brigatinib + rifampin 600 mg QD (test), n = 19) was 3020 ng·h/mL. The AUC ([3]; po, AUC0‐120, mean (SD), healthy subjects, single 180 mg oral brigatinib + rifampin 600 mg QD (test), n = 19) was 3110 ng·h/mL, the AUC ([3]; po, AUC0‐inf, geometric mean (% CV), healthy subjects, single 180 mg oral brigatinib + rifampin 600 mg QD (test), n = 19) was 3040 ng·h/mL and the AUC ([3]; po, AUC0‐inf, mean (SD), healthy subjects, single 180 mg oral brigatinib + rifampin 600 mg QD (test), n = 19) was 3140 ng·h/mL. For the same molecule, the Cmax ([3]; po, geometric mean (% CV), healthy subjects, single 180 mg oral brigatinib + rifampin 600 mg QD (test), n = 19) was 334 ng/mL, the Cmax ([3]; po, mean (SD), healthy subjects, single 180 mg oral brigatinib + rifampin 600 mg QD (test), n = 19) was 347 ng/mL and the half-life ([3]; po, t½, mean (SD), healthy subjects, single 180 mg oral brigatinib + rifampin 600 mg QD (test), n = 19) was 23.7 h. The “increase in CL/F” value ([3]; in the presence of rifampin) was “approximately 5 fold”, the “Any serious TEAE” value (healthy subjects; Gemfibrozil DDI arm (n = 20)) was 0 n (%) and the “Any severe TEAE” value (healthy subjects; Gemfibrozil DDI arm (n = 20)) was 0 n (%). For the same molecule, the “On‐study deaths” value (healthy subjects; Gemfibrozil DDI arm (n = 20)) was 0 n (%), the “Any TEAE” value (healthy subjects; Gemfibrozil DDI arm (n = 20), brigatinib 90 mg alone and with gemfibrozil) was 9 (45) n (%) and the “AE leading to discontinuation” value (healthy subjects; Gemfibrozil DDI arm (n = 20), emesis, treatment period 2) was 1 n (%). The “AE leading to discontinuation” value (healthy subjects; Itraconazole DDI arm (n = 20)) was 0 n (%), the “Any serious TEAE” value (healthy subjects; Itraconazole DDI arm (n = 20)) was 0 n (%) and the “Any severe TEAE” value (healthy subjects; Itraconazole DDI arm (n = 20)) was 0 n (%). For the same molecule, the “On‐study deaths” value (healthy subjects; Itraconazole DDI arm (n = 20)) was 0 n (%), the “Any serious TEAE” value (healthy subjects; Rifampin DDI arm (n = 20)) was 0 n (%) and the “Any severe TEAE” value (healthy subjects; Rifampin DDI arm (n = 20)) was 0 n (%). For the same molecule, the “On‐study deaths” value (healthy subjects; Rifampin DDI arm (n = 20)) was 0 n (%), the “AE leading to discontinuation” value (healthy subjects; Rifampin DDI arm (n = 20), elevated aspartate aminotransferase and alanine aminotransferase, treatment period 2) was 1 n (%) and the “TEAE incidence: cough” value (healthy subjects; [23]) was 20%. The “TEAE incidence: throat irritation” value (healthy subjects; [23]) was 10%, the “TEAE incidence: cough” value (healthy subjects; brigatinib coadministered with rifampin) was 10% and the “hazard ratio, progression‐free survival” value ([4]; brigatinib versus crizotinib, P < .001) was 0.49 [95%CI, 0.33‐0.74]. For the same molecule, the “12‐month progression‐free survival” value ([4]; phase 3 trial, crizotinib‐naive patients with ALK‐positive NSCLC) was 67%, the “steady‐state apparent oral clearance (CL/F)” value ([5]; 180 mg once daily in patients with cancer) was 12.7 L/h and the “single‐ and repeat‐dose systemic exposures versus dose” value ([5]; patients with cancer, dose range 60‐240 mg once daily) was “increased dose‐proportionally”. For the same molecule, the “decrease of peak concentration (Cmax) by a high‐fat meal” value ([6]; compared with fasted‐state administration) was 13%, the “median time to Cmax (tmax)” value ([6]; fasted state) was 2 h and the “median time to Cmax (tmax)” value ([6]; high‐fat meal) was 5 h. The “effect of a high‐fat meal on total systemic exposure” value [6] was “no impact”, the “administered dose recovered in feces” value [7] was 65% and the “administered dose recovered in urine” value [7] was 25%. For the same molecule, the “share of circulating radioactive components” value [7] was 92%, the “inhibition of CYP1A2 activity” value (CYP1A2) was “did not inhibit” and the “inhibition of CYP2B6 activity” value (CYP2B6) was “did not inhibit”. For the same molecule, the “inhibition of CYP2C8 activity” value (CYP2C8) was “did not inhibit”, the “inhibition of CYP2C9 activity” value (CYP2C9) was “did not inhibit” and the “inhibition of CYP2C19 activity” value (CYP2C19) was “did not inhibit”. The “inhibition of CYP2D6 activity” value (CYP2D6) was “did not inhibit”, the “inhibition of CYP3A4/5 activity” value (CYP3A4/5) was “did not inhibit” and the “induction of CYP3A expression” value (CYP3A expression) was “induced CYP3A expression”.

For `COc1cc(N2CCC(N3CCNCC3)CC2)ccc1Nc1ncc(Cl)c(Nc2ccccc2P(C)(C)=O)n1` [N‐desmethyl brigatinib], the “share of circulating radioactive components” value [7] is listed as 3.5% and the “ALK inhibition potency, fold lower than brigatinib” value (ALK) is listed as “approximately 3 fold”.
